{"source": "patent US20100048530A1", "about": "“New 2-Azetidinone Derivatives As Cholesterol Absorption Inhibitors For The Treatment Of Hyperlipidaemic Conditions” (ASTRAZENECA AB, priority 2005, published 2010)", "test_system": "C57BL/6 female mice", "test": "In vivo testing of cholesterol absorption inhibitors (A)", "settings": "0.2 μmol/kg, gavage, procedure A", "protocol": "In Vivo Testing of Cholesterol Absorption Inhibitors (A)\nC57BL/6 female mice were maintained on regular chow diet and housed in individual cages to collect faeces. Mice were fasted for 3 hours and then gavaged with vehicle or compound. Half an hour later the mice were gavaged with radiolabelled cholesterol. Six hours after the ^14C-cholesterol gavage blood samples were taken via the tail and plasma prepared to determine how much cholesterol were absorbed. 24 hours after the gavage of ^14C-cholesterol the mice were bled and plasma were prepared for analysis. Faeces were collected for 24 hours to assess absorption efficiency.", "data": [{"smiles": "O=C(O)CNC(=O)[C@@H](CC1CCCCC1)NC(=O)CNC(=O)COc1ccc([C@@H]2[C@@H](SCC(O)c3ccc4c(c3)OCCO4)C(=O)N2c2ccc(F)cc2)cc1", "note": "(stereo partly drawn) [Example 1, N-({4-[(2R,3R)-3-{[2-(2,3-dihydro-1,4-benzodioxin-6-yl)-2-hydroxyethyl]thio}-1-(4-fluorophenyl)-4-oxoazetidin-2-yl]phenoxy}acetyl)glycyl-3-cyclohexyl-D-alanylglycine]", "values": [{"measurement": "inhibition of 14C-cholesterol absorption", "value": 43, "unit": "%"}]}]}
